Results on 2 compounds are retold here after US12251364B2, “Treating non-alcoholic steatohepatitis with cck inhibitors” (priority 2018, dated 2025).

“Also recorded” adds a separate entry of the source.

In data set [1] the test system is mice on control high fat diet. As to the kind of experiment: Control high fat diet with choline, proglumide-treated versus untreated water. The class given is in vivo, mouse (female C57BL/6). As for the experimental part: All mouse studies were performed in an ethical fashion and approved by the Institutional Animal Care and Use Committee, protocol #2016-1193 for animal research by Georgetown University. Female C57BL/6 mice (body weight of >20 g) were obtained from Charles River Laboratory (Germantown, MD). Mice were housed with five per cage with filter-top cages and housing light cycled q12 hrs; on-off.
Mice were fed one of two custom high fat diets from MP Biomedicals, LLC (Solon, Ohio). The first group received a modified Choline Deficient Diet with 75% Ethionine supplemented diet (CDE) as previously described by Passman et al. “A modified choline-deficient, ethionine-supplemented diet reduces morbidity and retains a liver progenitor cell response in mice,” Dis Model Mech 8:1635-1641 (2015). […] The control mice received the same diet with choline. Both diets contained casein as the major source of protein and lard (saturated fat) as the primary source of fat. […] The food intake was measured by weighing food consumed to assure mice were eating equal amounts of food in each group, and animals ate ad libitum. […]
Subgroups of mice were ethically euthanized after CO2 asphyxiation and cervical dislocation at one of 4 different time points: weeks 4, 8, 12, or 18. […] Serum was analyzed by VRL Laboratories (Gaithersburg, MD). The following liver tests were evaluated and the normal range for mouse is shown: Alkaline phosphatase (35-275 u/L); Alanine aminotransferase, ALT (17-129 u/L); Aspartate aminotransferase, AST (46-392 u/L); and total bilirubin (0-0.9 mg/dL).
The liver tissues were fixed in 4% paraformaldehyde, paraffin embedded, and 8 μm sections were cut. […] A Liver pathologist blinded to the treatments and time period scored tissues for inflammation, fibrosis, steatosis, and whether there was evidence of dysplastic nodules or cancer (Table 2). Histology was scored for grade of inflammation (0-3), fibrosis (0-4), steatosis (0-3), balloon degeneration (0-2) and dysplasia or cancer (0-2). […]

Data set [2] has as its system mice on 75%-CDE diet (NASH, fibrosis and HCC). As to the kind of experiment: Prevention study: CDE diet-induced NASH in mice, proglumide in drinking water from start of diet. The class given is in vivo, mouse (female C57BL/6). The protocol: All mouse studies were performed in an ethical fashion and approved by the Institutional Animal Care and Use Committee, protocol #2016-1193 for animal research by Georgetown University. Female C57BL/6 mice (body weight of >20 g) were obtained from Charles River Laboratory (Germantown, MD). Mice were housed with five per cage with filter-top cages and housing light cycled q12 hrs; on-off. […] The first group received a modified Choline Deficient Diet with 75% Ethionine supplemented diet (CDE) as previously described by […] et al. “A modified choline-deficient, ethionine-supplemented diet reduces morbidity and retains a liver progenitor cell response in mice,” Dis Model Mech 8:1635-1641 (2015). […] The control mice received the same diet with choline. Both diets contained casein as the major source of protein and lard (saturated fat) as the primary source of fat. The diet composition is shown in Table 1 and is very similar to the Western diet (Roberts et al. “Western diet-induced hepatic steatosis and alterations in the liver transcriptome in adult Brown-Norway rats,” BMC Gastroenterol. 15:151 (2015)) where the diet consists of a high fat and high sugar and is often used in experimental animal diets to induce NAFLD. The food intake was measured by weighing food consumed to assure mice were eating equal amounts of food in each group, and animals ate ad libitum. Some mice on both diets were treated with the CCK receptor antagonist proglumide (Tocris Bioscience, Bristol, UK) at a concentration of 0.1 mg/ml and the estimated amount ingested per mouse was 30 mg/kg/d that was previously shown to block the CCK receptor (Smith et al. “Cholecystokinin receptor antagonist halts progression of pancreatic cancer precursor lesions and fibrosis in mice,” Pancreas 43:1050-1059 (2014)). Another cohort received untreated drinking water. The study design included two different parts: a “prevention study” and a “reversal study” (FIG. 1). In the prevention study, the goal was to determine if treatment with proglumide could prevent NASH, fibrosis and HCC if started at the same time of the initiation of the high fat CDE diet. Initially mice were randomized into one of four treatment group (FIG. 1). Sixty-five mice received the 75%-CDE diet and untreated drinking water (CDE/Reg). Of these (N=5 each) mice were ethically euthanized and livers dissected and analyzed histologically to assess for evidence of NASH at weeks 4 and 8. When NASH was becoming apparent, mice were continued on this diet and some (N=10) were euthanized at week 12 and some (N=25) were euthanized at week 18. Five mice died in the CDE/Reg diet in the first 12 weeks. A parallel cohort of mice (N=25) were also given the CDE diet but their drinking water was treated with the CCK-receptor antagonist proglumide. In this cohort, some (N=10) were euthanized, blood drawn, and liver examined histologically at week 12. The remainder (N=15) were euthanized and examined at week 18 to compare to the CDE/Reg group. Twenty mice each were treated with the control diet, and half (N=10) in this group received proglumide water and half received untreated drinking water. Half of the control mice were euthanized at the first time point of 12 weeks and the remainder was euthanized at the end of the experiment at 18 weeks. Subgroups of mice were ethically euthanized after CO2 asphyxiation and cervical dislocation at one of 4 different time points: weeks 4, 8, 12, or 18. Blood was collected by pericardiac puncture and centrifuged. Serum was analyzed by VRL Laboratories (Gaithersburg, MD). The following liver tests were evaluated and the normal range for mouse is shown: Alkaline phosphatase (35-275 u/L); Alanine aminotransferase, ALT (17-129 u/L); Aspartate aminotransferase, AST (46-392 u/L); and total bilirubin (0-0.9 mg/dL). The liver tissues were fixed in 4% paraformaldehyde, paraffin embedded, and 8 μm sections were cut. Mounted sections were stained with Hematoxylin & Eosin or Masson's trichrome. […]

For data set [3], the system named is mice on CDE diet with established NASH. Briefly: Reversal (recovery) study: established NASH after 12 weeks of CDE diet, then proglumide for 6 weeks. Format: in vivo, mouse (female C57BL/6). The protocol: All mouse studies were performed in an ethical fashion and approved by the Institutional Animal Care and Use Committee, protocol #2016-1193 for animal research by Georgetown University. Female C57BL/6 mice (body weight of >20 g) were obtained from Charles River Laboratory (Germantown, MD). Mice were housed with five per cage with filter-top cages and housing light cycled q12 hrs; on-off. […] The first group received a modified Choline Deficient Diet with 75% Ethionine supplemented diet (CDE) as previously described by […] et al. “A modified choline-deficient, ethionine-supplemented diet reduces morbidity and retains a liver progenitor cell response in mice,” Dis Model Mech 8:1635-1641 (2015). […] The control mice received the same diet with choline. Both diets contained casein as the major source of protein and lard (saturated fat) as the primary source of fat. The diet composition is shown in Table 1 and is very similar to the Western diet (Roberts et al. “Western diet-induced hepatic steatosis and alterations in the liver transcriptome in adult Brown-Norway rats,” BMC Gastroenterol. 15:151 (2015)) where the diet consists of a high fat and high sugar and is often used in experimental animal diets to induce NAFLD. The food intake was measured by weighing food consumed to assure mice were eating equal amounts of food in each group, and animals ate ad libitum. Some mice on both diets were treated with the CCK receptor antagonist proglumide (Tocris Bioscience, Bristol, UK) at a concentration of 0.1 mg/ml and the estimated amount ingested per mouse was 30 mg/kg/d that was previously shown to block the CCK receptor (Smith et al. “Cholecystokinin receptor antagonist halts progression of pancreatic cancer precursor lesions and fibrosis in mice,” Pancreas 43:1050-1059 (2014)). Another cohort received untreated drinking water. The reversal study, took mice that had been on the CDE diet and untreated water (CDE/Reg) for 12 weeks (a time determined to result in the mice having NASH histologically and biochemical hepatitis). Mice were randomly allocated to one of two groups at 12 weeks. The first group (N=15) continued on the CDE diet and untreated water and the second group (N=15) also continued on the CDE diet but then received proglumide in the drinking water at the same concentration as the prevention study (0.1 mg/ml). The purpose of the reversal study was to see if proglumide could reverse any of the histologic and biochemical abnormalities of NASH from the 12-week CDE/regular water diet. The other group continued on the CDE diet with untreated drinking water. The animals in each group were weighed weekly. At the termination of the experiment the animal body weight and liver weight were recorded. Subgroups of mice were ethically euthanized after CO2 asphyxiation and cervical dislocation at one of 4 different time points: weeks 4, 8, 12, or 18. Blood was collected by pericardiac puncture and centrifuged. Serum was analyzed by VRL Laboratories (Gaithersburg, MD). The following liver tests were evaluated and the normal range for mouse is shown: Alkaline phosphatase (35-275 u/L); Alanine aminotransferase, ALT (17-129 u/L); Aspartate aminotransferase, AST (46-392 u/L); and total bilirubin (0-0.9 mg/dL). The liver tissues were fixed in 4% paraformaldehyde, paraffin embedded, and 8 μm sections were cut. Mounted sections were stained with Hematoxylin & Eosin or Masson's trichrome. A Liver pathologist blinded to the treatments and time period scored tissues for inflammation, fibrosis, steatosis, and whether there was evidence of dysplastic nodules or cancer (Table 2). Histology was scored for grade of inflammation (0-3), fibrosis (0-4), steatosis (0-3), balloon degeneration (0-2) and dysplasia or cancer (0-2). For analysis, a NASH score was defined as the combination of the steatosis and the balloon degeneration score. […]

For data set [4] the following is noted: PIVENS trial; cited from earlier work.
[5] abbreviates: CDE/Prog vs CDE/Reg, weeks 12 and 18.
Setting [6] is: CDE/Reg 12 weeks then proglumide water 6 weeks.

As to `CCCN(CCC)C(=O)C(CCC(=O)O)NC(=O)c1ccccc1` (centres unmarked) [proglumide], the “abnormalities in hepatic blood tests or weight” value in data set [1] (control diet with proglumide vs untreated drinking water) is recorded as “no evidence of abnormalities”. For the same compound, the body weight entry in data set [1] (control diet, proglumide water vs untreated water) was “did not weigh more”. Also, the liver histology result in data set [1] (control diet, proglumide water vs untreated water, week 18) was “no evidence of NASH; also recorded: No differences”. In addition, the “serum AST levels” value in data set [2] (CDE diet + proglumide 0.1 mg/ml in drinking water from day 0 (Prevention), vs CDE/Reg) was “restored to near normal; also recorded: at or near normal levels”. Besides, in data set [2] (CDE diet + proglumide water from day 0, week 12), the “ALT serum levels, week 12” value is listed as “did not prevent elevation”. The “ALT serum levels, week 18” value in data set [2] (CDE diet + proglumide water from day 0, week 18) is “did decrease ALT values; also recorded: able to prevent this increase only after 18 weeks”. The serum total bilirubin entry in data set [2] (CDE diet + proglumide water from day 0, weeks 12 and 18, vs CDE/Reg) is “completely prevented; also recorded: prevented bilirubin level increases”. The “alkaline phosphatase blood levels” value in data set [2] (CDE diet + proglumide water, vs CDE/Reg) is “not prevented or reversed; also recorded: did not decrease alkaline phosphatase”. For the same compound, in data set [2] (setting [5]), the “histologic features/changes of NASH” value is “significantly decreased; also recorded: prevented”, the histologic fibrosis score entry was “prevented; also recorded: decreased fibrosis”, the histologic inflammation score entry is on record as “prevented; also recorded: marked decrease in inflammation; also recorded: decreased inflammation” and the histologic steatosis score entry is reported as “prevented; also recorded: decreased steatosis”. The balloon degeneration result in data set [2] (CDE/Prog, week 12 liver histology) was “minimal or no balloon degeneration”. In data set [2] (week 18, CDE/Prog prevention arm N=15, CDE/Reg 8 of 23), the “mice with dysplastic nodules or HCC” value is “none and no dysplasia or HCC”. In data set [3] (CDE/Reg 12 weeks then CDE/Prog 6 weeks (Recovery)), the “serum AST levels” value is reported as “significantly decreased”. In addition, in data set [3] (CDE/Reg 12 weeks then CDE/proglumide 6 weeks, N=15, week 18), the “HCC or dysplastic nodules” value is “no evidence of HCC or dysplastic nodules and none”. Besides, in data set [3] (setting [6]), the alkaline phosphatase levels entry is listed as “not prevented or reversed” and the serum total bilirubin result is “returned to the normal range; also recorded: decreased bilirubin”. The ALT serum levels result in data set [3] (Recovery vs CDE/Reg for 18 full weeks) is listed as “this difference was not significant”. Further, in data set [3] (Recovery, week 18), the histologic fibrosis score entry is “able to decrease; also recorded: improved” and the histologic inflammation score result is on record as “able to decrease; also recorded: improved”. The “liver blood tests and histology” value in data set [3] (proglumide for 6 weeks while continuing the CDE diet) is on record as “improved significantly”.

In the case of Vitamin E, the reversal of fibrosis entry in data set [4] is reported as “neither compound statistically reversed fibrosis”.
